According to patent publication US6147073A, “Substituted tetralymethylen-Oxindoles analogues as tyrosine kinase inhibitors” (Pharmacia & Upjohn S.p.A., priority 1996, dated 2000):
Where a name gives a salt, the structure may show the parent alone.

How the values were obtained:
[1] = target: p45 v-abl tyrosine kinase; experiment: p45 v-abl Kinase Assay ((Val^5)-angiotensin II phosphorylation); assay type: biochemical, Abelson murine leukemia virus; settings: purified abl-kinase 40 ng; peptide 2 mM, ATP 50 μM; pH 8.0, 30° C.
Procedure: The enzyme used in our tests is the p45 v-abl tyrosine kinase which represents the catalytic domain of the Abelson tyrosine kinase (isolated from the Abelson murine leukemia virus). The p45 v-abl kinase is produced and isolated as described by Wang et al. in J.Biol.Chem. 260, 64 (1985) and by Ferguson et al. in J.Biol.Chem. 260, 3652 (1985) and in Biochem.J. 257, 321 (1989).
(Val^5)-angiotensin II phosphorylation is performed by incubation with 40 ng of purified abl-kinase and (γ-^32 P) ATP, in 50 μl of buffer containing Tris-HCl 25 mM, pH 8.0, MgCl2 10 mM and dithiothreitol 0.1 mM (kinase buffer). The reaction mixture is incubated for the indicated time at 30° C. and the reaction stopped by adding 50 μl of 5% trichloracetic acid. After a brief incubation on ice the tubes are centrifuged. The supernatants are spotted on phosphocellulase paper squares (Whatman P-81) and washed extensively in acetic acid. The radioactivity bound to dried phosphocellulose squares is measured in a liquid scintillation counter. IC50 values are calculated from triplicated determination of each experimental point. Each inhibitor is tested at concentrations ranging from […] in the presence of fixed concentrations of peptide (2 mM) and ATP (50 μM).

K562 cells = experiment: K562 Cell Growth Inhibition Assay; assay type: cell-based; settings: human myelogenous leukemia cell line, cell count after 72 h vs untreated control
Procedure: K562 cells, a human myelogenous leukemia cell line, were seeded into a 24 wells tissue culture plate (Falcon 3047) (10000/well) in the presence of increasing concentrations of the compounds.
After 72 h, cells were harvested and were counted using a cell counter (Coulter Counter-ZM). The percent of inhibition was evaluated in respect to the untreated control cells.

## CC(N)C(=O)Nc1ccc2c(c1)C(=Cc1cc(O)c3c(c1O)CCCC3)C(=O)N2 (centres unmarked) [5-(alanylamino)-3-(1,4-dihydroxy-2-tetralylmethylen)-2-oxindole]
[1]
  IC50: 10 µM
K562 cells; K562
  IC50: 8.31 µM

## NC(CCC(=O)O)C(=O)Nc1ccc2c(c1)C(=Cc1cc(O)c3c(c1O)CCCC3)C(=O)N2 (centres unmarked) [5-(glutamylamino)-3-(1,4-dihydroxy-2-tetralylmethylen)-2-oxindole]
[1]
  IC50: 10 µM
K562 cells
  IC50: 5.97 µM

## CC(N)C(=O)NC(C)C(=O)Nc1ccc2c(c1)C(=Cc1cc(O)c3c(c1O)CCCC3)C(=O)N2 (centres unmarked) [5-(alanylalanylamino)-3-(1,4-dihydroxy-2-tetralylmethylen)-2-oxindole trifluoroacetate]
[1]
  IC50: 3.12 µM
K562 cells; K562
  IC50: 5.3 µM

## CC(NC(=O)OC(C)(C)C)C(=O)Nc1ccc2c(c1)C(=Cc1cc(O)c3c(c1O)CCCC3)C(=O)N2 (centres unmarked) [5-(N-tert-butoxycarbonylalanylamino)-3-(1,4-dihydroxy-2-tetralylmethylen)-2-oxindole]
[1]
  IC50: 1.56 µM
K562 cells; K562
  IC50: 5.86 µM
